Test system: apyrase
Test: Screen for apyrase inhibitors (Method 1, in vitro phosphate-release absorbance assay)
Format: biochemical
Conditions: inhibitor conc at 1 mM stock, 1 hr room temperature, absorbance 630 nm; rounded average of two assay results
Summary of the method: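 Phosphate-release colorimetric assay (Windsor method) in 60 mM Hepes, 3 mM MgCl2, 3 mM CaCl2, 3 mM ATP, pH 6.5, with compound or DMSO control added. Released phosphate developed with ammonium molybdate and ascorbic acid/TCA, then stopped with citrate/acetic acid.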

Row | % Inhibition of Apyrase [%] | Compound
1 | 51 | O=C(c1cccc(S(=O)(=O)N2CCc3ccccc32)c1)N1CCc2ccccc21 [I-567, indolin-1-yl(3-(indolin-1-ylsulfonyl)phenyl)methanone]
2 | 51 | CCOc1ccc(NS(=O)(=O)c2cccc(C(=O)N3CCCc4ccccc43)c2)cc1 [I-568, N-(4-ethoxyphenyl)-3-(1,2,3,4-tetrahydroquinoline-1-carbonyl)benzenesulfonamide]
3 | 51 | Cc1ccc(C(=O)N2CCc3ccccc32)cc1S(=O)(=O)Nc1ccc(F)cc1 [I-569, N-(4-fluorophenyl)-5-(indoline-1-carbonyl)-2-methylbenzenesulfonamide]
4 | 51 | COc1cc(OC)c(NS(=O)(=O)c2ccc(C)c(C(=O)N3CCc4ccccc43)c2)cc1Cl [I-570, N-(5-chloro-2,4-dimethoxyphenyl)-3-(indoline-1-carbonyl)-4-methylbenzenesulfonamide]
5 | 51 | CC1Cc2ccccc2N1S(=O)(=O)c1cccc(C(=O)N2CCCc3cc(F)c(F)cc32)c1 (centres unmarked) [I-571, (6,7-difluoro-3,4-dihydroquinolin-1(2H)-yl)(3-((2-methylindolin-1-yl)sulfonyl)phenyl)methanone]
6 | 50 | O=C(Nc1ccccc1C(=O)N1CCCCC1)c1cccc(S(=O)(=O)N2CCc3ccccc32)c1 [I-572, 3-(indolin-1-ylsulfonyl)-N-(2-(piperidine-1-carbonyl)phenyl)benzamide]
7 | 50 | O=C(Nc1ccc2c(c1)OCCCO2)c1cccc(S(=O)(=O)Nc2ccc3c(c2)OCCO3)c1 [I-573, N-(3,4-dihydro-2H-benzo[b][1,4]dioxepin-7-yl)-3-(N-(2,3-dihydrobenzo[b][1,4]dioxin-6-yl)sulfamoyl)benzamide]
8 | 49 | Cc1ccc2c(c1)CCCN2C(=O)c1cccc(S(=O)(=O)Nc2ccccc2F)c1 [I-574, N-(2-fluorophenyl)-3-(6-methyl-1,2,3,4-tetrahydroquinoline-1-carbonyl)benzenesulfonamide]
9 | 49 | COc1ccc(NC(=O)c2cccc(S(=O)(=O)N3CCc4ccccc43)c2)c(OC)c1 [I-575, N-(2,4-dimethoxyphenyl)-3-(indolin-1-ylsulfonyl)benzamide]
10 | 49 | O=C(c1cccc(S(=O)(=O)Nc2ccc(F)cc2)c1)N1CCc2ccccc21 [I-576, N-(4-fluorophenyl)-3-(indoline-1-carbonyl)benzenesulfonamide]
11 | 48 | COc1ccc(S(=O)(=O)N2CCc3ccccc32)cc1C(=O)Nc1ccc2c(c1)OCCO2 [I-577, N-(2,3-dihydrobenzo[b][1,4]dioxin-6-yl)-5-(indolin-1-ylsulfonyl)-2-methoxybenzamide]
12 | 48 | COc1ccc(S(=O)(=O)N2CCCCC2)cc1NC(=O)c1cccc(S(=O)(=O)Nc2ccccc2OC)c1 [I-578, N-(2-methoxy-5-(piperidin-1-ylsulfonyl)phenyl)-3-(N-(2-methoxyphenyl)sulfamoyl)benzamide]
13 | 48 | CC1Cc2ccccc2N1C(=O)c1cccc(S(=O)(=O)Nc2cc(C(F)(F)F)ccc2Cl)c1 (centres unmarked) [I-579, N-(2-chloro-5-(trifluoromethyl)phenyl)-3-(2-methylindoline-1-carbonyl)benzenesulfonamide]
14 | 47 | COC(=O)c1cccc2c1CCCN2C(=O)c1cccc(S(=O)(=O)N(C)c2ccccc2)c1 [I-580, methyl 1-(3-(N-methyl-N-phenylsulfamoyl)benzoyl)-1,2,3,4-tetrahydroquinoline-5-carboxylate]
15 | 47 | CCOc1ccc(NC(=O)c2cc(S(=O)(=O)N3CCc4ccccc43)ccc2OC)cc1 [I-581, N-(4-ethoxyphenyl)-5-(indolin-1-ylsulfonyl)-2-methoxybenzamide]
16 | 47 | CC1Cc2ccccc2N1S(=O)(=O)c1cccc(C(=O)Nc2ccc3c(c2)OCCCO3)c1 (centres unmarked) [I-582, N-(3,4-dihydro-2H-benzo[b][1,4]dioxepin-7-yl)-3-((2-methylindolin-1-yl)sulfonyl)benzamide]
17 | 47 | Cc1nc2cc(NC(=O)c3cccc(S(=O)(=O)N4c5ccccc5CC4C)c3)ccc2o1 (centres unmarked) [I-583, N-(2-methylbenzo[d]oxazol-5-yl)-3-((2-methylindolin-1-yl)sulfonyl)benzamide]
18 | 46 | CC(=O)c1cc2c(cc1NC(=O)c1cccc(S(=O)(=O)N3CCc4ccccc43)c1)OCO2 [I-584, N-(6-acetylbenzo[d][1,3]dioxol-5-yl)-3-(indolin-1-ylsulfonyl)benzamide]
19 | 45 | O=C(Nc1ccccc1N1CCOCC1)c1cccc(S(=O)(=O)N2CCc3ccccc32)c1 [I-585, 3-(indolin-1-ylsulfonyl)-N-(2-morpholinophenyl)benzamide]
20 | 44 | CCOc1ccc(NC(=O)c2cccc(S(=O)(=O)Nc3ccc4c(c3)OCO4)c2)cc1OC [I-586, 3-(N-(benzo[d][1,3]dioxol-5-yl)sulfamoyl)-N-(4-ethoxy-3-methoxyphenyl)benzamide]
21 | 44 | Cc1nc2cc(NC(=O)c3cccc(S(=O)(=O)N4CCc5ccccc54)c3)ccc2o1 [I-587, 3-(indolin-1-ylsulfonyl)-N-(2-methylbenzo[d]oxazol-5-yl)benzamide]

Row | % Inhibition of Apyrase [%] | Compound
22 | 43 | COc1ccc(NC(=O)c2ccc(Cl)c(S(=O)(=O)N3CCc4ccccc43)c2)cc1OC [I-588, 4-chloro-N-(3,4-dimethoxyphenyl)-3-(indolin-1-ylsulfonyl)benzamide]
23 | 42 | CC(=O)Nc1cccc(NC(=O)c2cccc(S(=O)(=O)N3c4ccccc4CC3C)c2)c1 (centres unmarked) [I-589, N-(3-acetamidophenyl)-3-((2-methylindolin-1-yl)sulfonyl)benzamide]
24 | 42 | COc1ccc(NC(=O)c2cccc(S(=O)(=O)Nc3ccc4c(c3)OCO4)c2)c(OC)c1 [I-590, 3-(N-(benzo[d][1,3]dioxol-5-yl)sulfamoyl)-N-(2,4-dimethoxyphenyl)benzamide]
25 | 41 | Cc1ccc(N(C)S(=O)(=O)c2cccc(C(=O)Nc3ccc(C)cc3C)c2)cc1 [I-591, N-(2,4-dimethylphenyl)-3-(N-methyl-N-(p-tolyl)sulfamoyl)benzamide]
26 | 41 | Cc1nc2ccc(NC(=O)c3cccc(S(=O)(=O)N4CCc5ccccc54)c3)cc2s1 [I-592, 3-(indolin-1-ylsulfonyl)-N-(2-methylbenzo[d]thiazol-6-yl)benzamide]
27 | 38 | COc1ccc(S(=O)(=O)N2CCc3ccccc32)cc1C(=O)Nc1ccc(C)c(C)c1 [I-593, N-(3,4-dimethylphenyl)-5-(indolin-1-ylsulfonyl)-2-methoxybenzamide]
28 | 36 | CCNC(=O)c1cccc(NC(=O)c2cccc(S(=O)(=O)Nc3cccc(C(F)(F)F)c3)c2)c1 [I-594, N-ethyl-3-(3-(N-(3-(trifluoromethyl)phenyl)sulfamoyl)benzamido) benzamide]
29 | 35 | O=C(Nc1cccc2ncccc12)c1cccc(S(=O)(=O)N2CCc3ccccc32)c1 [I-596, 3-(indolin-1-ylsulfonyl)-N-(quinolin-5-yl)benzamide]
30 | 35 | COc1ccc(S(=O)(=O)N2CCc3ccccc32)cc1C(=O)Nc1ccc(OC(F)(F)F)cc1 [I-597, 5-(indolin-1-ylsulfonyl)-2-methoxy-N-(4-(trifluoromethoxy)phenyl)benzamide]
31 | 31 | O=C(Nc1ccc2[nH]c(=O)[nH]c2c1)c1cccc(S(=O)(=O)N2CCc3ccccc32)c1 [I-598, 3-(indolin-1-ylsulfonyl)-N-(2-oxo-2,3-dihydro-1H-benzo[d]imidazol-5-yl)benzamide]
32 | 30 | COc1ccc(Cl)cc1NS(=O)(=O)c1cccc(C(=O)Nc2ccc(N(C)C)nc2)c1 [I-599, 3-(N-(5-chloro-2-methoxyphenyl)sulfamoyl)-N-(6-(dimethylamino)pyridin-3-yl)benzamide]
33 | 29 | O=C(Nc1ccccc1N1CCCC1=O)c1cccc(S(=O)(=O)N2CCc3ccccc32)c1 [I-600, 3-(indolin-1-ylsulfonyl)-N-(2-(2-oxopyrrolidin-1-yl)phenyl)benzamide]
34 | 29 | O=C(Nc1ccc(N2CCOCC2)cc1)c1cccc(S(=O)(=O)N2CCc3ccccc32)c1 [I-601, 3-(indolin-1-ylsulfonyl)-N-(4-morpholinophenyl)benzamide]
35 | 28 | CC1Cc2ccccc2N1S(=O)(=O)c1cccc(C(=O)Nc2cccc3ncccc23)c1 (centres unmarked) [I-602, 3-((2-methylindolin-1-yl)sulfonyl)-N-(quinolin-5-yl)benzamide]
36 | 25 | CS(=O)(=O)c1ccc2c(c1)N(C(=O)c1cccc(S(=O)(=O)N3CCc4ccccc43)c1)CCC2 [I-603, (3-(indolin-1-ylsulfonyl)phenyl)(7-(methylsulfonyl)-3,4-dihydroquinolin-1(2H)-yl)methanone]
37 | 23 | O=C(Nc1ccccc1Cl)c1cccc(S(=O)(=O)N2CCc3ccccc32)c1 [I-604, N-(2-chlorophenyl)-3-(indolin-1-ylsulfonyl)benzamide]
38 | 23 | COc1cc(C)c(NC(=O)c2cccc(S(=O)(=O)N3CCc4ccccc43)c2)cc1OC [I-605, N-(4,5-dimethoxy-2-methylphenyl)-3-(indolin-1-ylsulfonyl)benzamide]
39 | 16 | COc1ccc(NS(=O)(=O)c2cccc(C(=O)Nc3cnc4[nH]nc(C)c4c3)c2)cc1 [I-606, 3-(N-(4-methoxyphenyl)sulfamoyl)-N-(3-methyl-1H-pyrazolo[3,4-b]pyridin-5-yl)benzamide]
40 | 16 | NC(=O)c1ccc(NC(=O)c2cccc(S(=O)(=O)N3CCc4ccccc43)c2)cc1 [I-607, N-(4-carbamoylphenyl)-3-(indolin-1-ylsulfonyl)benzamide]
41 | 14 | CC(=O)NS(=O)(=O)c1ccc(NC(=O)c2cccc(S(=O)(=O)N3CCc4ccccc43)c2)cc1 [I-608, N-(4-(N-acetylsulfamoyl)phenyl)-3-(indolin-1-ylsulfonyl)benzamide]

From patent US12685312B2, “Sulfonamide apyrase inhibitors” (Texas Crop Science, Inc., priority 2022, dated 2026)
